# Values joined by “and” are separate entries in the source; they are usually repeats but may differ in a detail not shown here. Equal values may be shown once.
# Key:
# [1] = target: T1, Wild type Arabidopsis AHAS (Arabidopsis thaliana, UniProt P17597); assay: AHAS enzyme assay (expression in E. coli MF2000), wild type enzyme; type: biochemical; conditions: wild type (pAC201); Figures 4 and 5
# T1 construct: made in house; host or cells: E. coli MF2000 (no endogenous AHAS), vector pKK233-2; ammonium sulfate fraction of the extract
# T1 sequence (P17597 56-670): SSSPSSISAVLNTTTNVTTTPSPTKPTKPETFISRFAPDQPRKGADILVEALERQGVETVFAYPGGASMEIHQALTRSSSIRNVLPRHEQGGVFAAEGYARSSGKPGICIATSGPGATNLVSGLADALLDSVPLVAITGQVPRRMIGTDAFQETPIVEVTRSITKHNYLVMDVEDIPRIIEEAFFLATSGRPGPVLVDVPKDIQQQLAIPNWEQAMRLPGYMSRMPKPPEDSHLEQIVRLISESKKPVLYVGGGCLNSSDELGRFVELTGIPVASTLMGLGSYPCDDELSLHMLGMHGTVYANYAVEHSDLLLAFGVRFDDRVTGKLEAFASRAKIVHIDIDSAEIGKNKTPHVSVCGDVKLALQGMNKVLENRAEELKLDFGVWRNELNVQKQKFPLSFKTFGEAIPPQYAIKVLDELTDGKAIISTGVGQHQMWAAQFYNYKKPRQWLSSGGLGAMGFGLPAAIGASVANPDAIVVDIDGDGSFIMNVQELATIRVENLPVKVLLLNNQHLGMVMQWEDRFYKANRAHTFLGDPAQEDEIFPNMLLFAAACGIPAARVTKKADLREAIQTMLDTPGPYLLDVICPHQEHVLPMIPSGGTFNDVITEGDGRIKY
# Protocol: AHAS enzyme assay (expression in E. coli) - The site directed mutants, pAC224 and pAC225, are utilized as templates for the generation of an E. coli based expression system. The insensitivity to herbicide is tested when the higher plant gene of interest is expressed in a bacterial strain devoid of any endogenous AHAS activity. To this end, the Nco1/Pst1 fragment of wild type Arabidopsis AHAS (pAC301), the Trp574-Leu substitution (pAC224) and the Trp574 deletion (pAC225) are subcloned into the Nco1/Pst1 site of the E. coli expression vector, pKK233-2 (purchased from Pharmacia). This expression plasmid contains an IPTG inducible promoter as well as a transcription termination sequence. Both regions surround an Nco1, HindIII and Pstl linker sequence that allows proper orientation of the gene of interest in relation to the bacterial promoter. Subcloning and ligation of the respective Ncol/Pstl fragments into Ncol/Pstl digested pKK233-2 DNA (ampicillin resistance) is as previously described. […] This bacterial strain is devoid of endogenous AHAS activity. Therefore, growth on a minimal media lacking isoleucine and valine (the end products of amino acid biosynthetic pathway of which the AHAS enzyme is involved) in an MF2000 strain transformed with either pAC224 (Trp574-Leu) or pAC225 (Trp del) requires the expression and function of the Arabidopsis gene in E. coli. […]
# [2] = target: T2, mutant Arabidopsis AHAS allele having the Trp574 deletion (Arabidopsis thaliana, UniProt P17597, DEL574-574); assay: AHAS enzyme assay (leaf tissue) of tobacco deletion transformant 10-1; type: biochemical; conditions: leaf extract of kanamycin resistant deletion transformant 10-1
# T2 construct: expressed in transfected cells; host or cells: leaf tissue of transgenic tobacco plant 10-1, Agrobacterium LBA4404 / pBIN19 with the 5.5 kb XbaI genomic fragment
# T2 sequence (P17597 other isoform, or with tags, fused parts or gaps DEL574-574): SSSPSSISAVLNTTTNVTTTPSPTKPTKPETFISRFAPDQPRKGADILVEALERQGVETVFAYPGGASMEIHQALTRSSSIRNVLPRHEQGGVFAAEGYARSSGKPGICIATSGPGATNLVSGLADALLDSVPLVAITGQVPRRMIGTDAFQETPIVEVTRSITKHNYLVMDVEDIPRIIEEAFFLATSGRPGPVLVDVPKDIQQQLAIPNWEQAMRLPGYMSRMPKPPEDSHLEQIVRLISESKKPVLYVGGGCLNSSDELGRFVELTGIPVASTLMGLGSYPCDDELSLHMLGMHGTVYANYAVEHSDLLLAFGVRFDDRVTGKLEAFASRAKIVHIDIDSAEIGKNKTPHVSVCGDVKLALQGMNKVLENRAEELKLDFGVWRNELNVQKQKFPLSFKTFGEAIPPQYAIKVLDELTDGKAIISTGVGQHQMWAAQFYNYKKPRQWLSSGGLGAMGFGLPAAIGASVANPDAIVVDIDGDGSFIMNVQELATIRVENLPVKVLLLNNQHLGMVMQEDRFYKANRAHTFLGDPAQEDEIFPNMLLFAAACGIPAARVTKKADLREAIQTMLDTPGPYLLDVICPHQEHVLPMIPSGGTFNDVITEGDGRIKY
# Protocol: (§1) AHAS enzyme assay (leaf tissue) - Shortly after transfer to the greenhouse, extracts each of the kanamycin resistant transformants are prepared and assayed for insensitivity to the imidazolinone Pursuit® herbicide. Acetohydroxyacid synthase is extracted and assayed as described in the previous section. […] This Trp574 deletion transformant is selfed and backcrossed to Wisconsin 38.
# (§2) The extraction and assay for Arabidopsis AHAS in bacterial cells is essentially as described by Singh, et. al. (J. Chromatography 444: 251-261, 1988). The bacterial pellet is powered in liquid nitrogen and homogenized in 100mM potassium phosphate buffer (pH 7.5) containing 10mM pyruvate, 5mM magnesium chloride, 5mM Na₂-EDTA, 100um flavin adenine dinucleotide (FAD), 1mM valine, 1mM leucine, 10%(v/v) glycerol and 10mM cysteine. The homogenate is filtered through a nylon cloth (53uM mesh) and centrifuged at 25,000 x g for 20 minutes. The supernatant fraction is brought to 50% saturation with respect to ammonium sulfate and allowed to stand for 20-30 minutes on ice. […]
# (§3) AHAS activity in the presence or absence of herbicide is measured by estimation of the product, acetolactate, after conversion by acid decarboxylation to acetoin. […] The acetoin formed is determined by incubating with creatine (0.17%) and 1-naphthol (1.7%) by the method of Westerfeld (J. Biol. Chem. 161: 495-502, 1945). […]
# [3] = target: T3, AHAS produced by the Ser653 deletion (pAC230) (Arabidopsis thaliana, UniProt P17597, DEL653-653); type: biochemical; conditions: Figures 6 and 7
# T3 construct: made in house; host or cells: E. coli MF2000
# T3 sequence (P17597 other isoform, or with tags, fused parts or gaps DEL653-653): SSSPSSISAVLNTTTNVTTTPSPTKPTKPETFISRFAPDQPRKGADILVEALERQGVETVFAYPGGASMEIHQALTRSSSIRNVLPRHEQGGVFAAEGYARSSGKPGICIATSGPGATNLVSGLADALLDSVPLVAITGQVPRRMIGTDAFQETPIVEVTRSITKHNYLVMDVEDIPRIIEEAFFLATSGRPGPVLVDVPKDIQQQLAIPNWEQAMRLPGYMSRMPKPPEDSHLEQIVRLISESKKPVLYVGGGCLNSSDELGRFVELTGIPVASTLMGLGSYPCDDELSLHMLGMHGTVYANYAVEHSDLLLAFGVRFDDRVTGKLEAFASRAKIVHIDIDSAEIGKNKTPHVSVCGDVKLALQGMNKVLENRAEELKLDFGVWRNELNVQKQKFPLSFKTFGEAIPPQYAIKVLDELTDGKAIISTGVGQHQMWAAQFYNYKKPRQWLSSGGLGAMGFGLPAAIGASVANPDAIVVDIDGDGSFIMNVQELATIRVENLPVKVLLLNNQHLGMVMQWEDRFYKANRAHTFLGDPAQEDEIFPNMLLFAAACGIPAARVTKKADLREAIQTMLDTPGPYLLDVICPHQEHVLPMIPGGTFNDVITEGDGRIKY
# [4] = target: T4, Arabidopsis AHAS Trp574 deletion (pAC225) (Arabidopsis thaliana, UniProt P17597, DEL574-574); type: biochemical; conditions: increasing concentrations of herbicide, Figures 4 and 5
# T4 construct: made in house; host or cells: E. coli MF2000, vector pKK233-2
# T4 sequence (P17597 other isoform, or with tags, fused parts or gaps DEL574-574): as the sequence (P17597 other isoform, or with tags, fused parts or gaps DEL574-574) above
# Protocol: (§4) AHAS enzyme assay (expression in E. coli) - The site directed mutants, pAC224 and pAC225, are utilized as templates for the generation of an E. coli based expression system. The insensitivity to herbicide is tested when the higher plant gene of interest is expressed in a bacterial strain devoid of any endogenous AHAS activity. To this end, the Nco1/Pst1 fragment of wild type Arabidopsis AHAS (pAC301), the Trp574-Leu substitution (pAC224) and the Trp574 deletion (pAC225) are subcloned into the Nco1/Pst1 site of the E. coli expression vector, pKK233-2 (purchased from Pharmacia). This expression plasmid contains an IPTG inducible promoter as well as a transcription termination sequence. Both regions surround an Nco1, HindIII and Pstl linker sequence that allows proper orientation of the gene of interest in relation to the bacterial promoter. Subcloning and ligation of the respective Ncol/Pstl fragments into Ncol/Pstl digested pKK233-2 DNA (ampicillin resistance) is as previously described. The ligation reaction is transformed into the E. coli strain, MF2000 [ilvB800:mu-1, Bg132, ilvI15, thi-1, argE3, RPSL31, (ara-leu, iIvHI) 863, mtl-1, xyl-5 galK2, lacYI, recAl]. This bacterial strain is devoid of endogenous AHAS activity. […]
# [5] = target: T5, Arabidopsis AHAS Trp574-Leu substitution (pAC224) (Arabidopsis thaliana, UniProt P17597, W574L); type: biochemical; conditions: increasing concentrations of herbicide, Figures 4 and 5
# T5 construct: made in house; host or cells: E. coli MF2000, vector pKK233-2
# T5 sequence (P17597 56-670 W574L): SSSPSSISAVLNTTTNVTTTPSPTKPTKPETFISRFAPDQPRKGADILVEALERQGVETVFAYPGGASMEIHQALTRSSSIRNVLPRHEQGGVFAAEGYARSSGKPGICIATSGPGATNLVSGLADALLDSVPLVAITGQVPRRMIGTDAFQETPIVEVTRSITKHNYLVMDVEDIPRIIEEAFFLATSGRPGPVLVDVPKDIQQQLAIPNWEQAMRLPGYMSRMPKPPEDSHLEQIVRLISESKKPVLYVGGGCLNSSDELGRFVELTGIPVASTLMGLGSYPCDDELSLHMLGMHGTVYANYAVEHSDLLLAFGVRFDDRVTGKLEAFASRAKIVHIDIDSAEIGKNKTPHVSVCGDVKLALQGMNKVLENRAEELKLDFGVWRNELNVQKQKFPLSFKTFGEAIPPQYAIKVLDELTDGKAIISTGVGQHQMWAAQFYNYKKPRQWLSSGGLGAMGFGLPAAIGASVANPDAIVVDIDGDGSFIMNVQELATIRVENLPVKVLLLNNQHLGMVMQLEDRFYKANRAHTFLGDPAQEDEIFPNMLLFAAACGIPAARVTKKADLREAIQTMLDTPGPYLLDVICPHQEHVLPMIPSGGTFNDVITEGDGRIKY
# Protocol: as §4
# [6] = test system: 10-1 Selfed; assay: Tobacco seed assay on herbicide medium, 10-1 selfed; type: in vivo; conditions: 5 µM in medium; twenty seeds per dish; after three weeks
# Protocol: (§5) Seeds resulting from transgenic plant 10-1 are also assayed for resistance to the imidazolinone Pursuit®. Seeds are plated onto medium containing Pursuit® at 0, 1.25, 2.5, 3.75, and 5.0 µM. Twenty seeds are plated per petri dish, with two dishes per treatment. Herbicide tolerance of seedlings is evaluated after three weeks. […]
# [7] = test system: 10-1 x 0; assay: Tobacco seed assay on herbicide medium, 10-1 x 0; type: in vivo; conditions: 5 µM in medium; twenty seeds per dish; after three weeks
# Protocol: as §5
# [8] = test system: selfed progeny of the transgenic tobacco plant (10-1) containing the Trp574 deletion mutation of Arabidopsis AHAS; assay: Postemergence spray of tobacco, selfed progeny of transgenic plant 10-1; type: in vivo; conditions: for plant growth: 25 days after spraying, Figure 2(a); for Tobacco Mean FW: (5 reps each): Transgenic Progeny, four and one-half weeks
# Excerpt: (§6) All three photographs were taken 25 days after spraying. In all photographs, control plants (a wild-type herbicide sensitive tobacco cultivar, Wisconsin 38[W38]) are in the front row. • (a) W38 Control and 10-1 Self - W38 represents the control and 10-1 the selfed transgenic tobacco progeny. At 0 g/ha Pursuit®, both the W38 and the 10-1 look similar. […] 0 x 10-1 represents W38 as the maternal parent (0) and 10-1 as the paternal parent. The results are very similar to that seen in the 10-1 selfed photograph. • (c) W38 Control and 10-1 x 0 - W38 as previously described. 10-1 x 0 represents 10-1 as the maternal parent and W38 as the paternal parent (0). The results are very similar to that seen in the 10-1 selfed photograph except that in this photo segregation of the herbicide resistance trait can be seen in the 10-1 progeny.
# (§7) In a more quantitative assay, seed of selfed progeny of the transgenic tobacco plant (10-1) containing the Trp574 deletion mutation of Arabidopsis AHAS as well as seeds of the susceptible parental cultivar "Wisconsin 38" are planted in Metro Mix 350™ in 5" Azalea pots. The seedlings are thinned to the single most vigorous seedling after 2 days. Eleven days later, these plants are sprayed postemergence with Pursuit® at 0, 10, 20, 40, 80 and 160 g/ha. Five plants of each tobacco type (transgenic and control) are sprayed per herbicide rate. Tween 20™ is added at 0.25 v/v to the herbicide solutions prior to spraying. The herbicide is applied with a laboratory belt sprayer at a rate of 400 L/ha at a distance 18" above the plants with a belt speed of 8.2 sec/rev and sprayer nozzle #65015E. Plant heights are measured 1, 2, 3, and 4 weeks after treatment, plant fresh weight data is collected at four and one-half weeks.
# [9] = target: T6, AHAS produced by substitution of asparagine for serine at position 653 (pAC229) (Arabidopsis thaliana, UniProt P17597, S653N); type: biochemical; conditions: Ser653 to asparagine substitution; Figure 6
# T6 construct: made in house; host or cells: E. coli MF2000
# T6 sequence (P17597 56-670 S653N): as the sequence (P17597 56-670 W574L) above, with L519W, S598N counted along it
# [10] = target: T7, Trp574-->Leu substitution mutant allele of the Arabidopsis AHAS (Arabidopsis thaliana, UniProt P17597, W574L); assay: AHAS enzyme assay (leaf tissue) of tobacco transformants 33-1 and 46-2; type: biochemical; conditions: leaf extracts of kanamycin resistant transformants 33-1 and 46-2
# T7 construct: expressed in transfected cells; host or cells: leaf tissue of transgenic tobacco (Wisconsin 38 background), Agrobacterium LBA4404 / pBIN19 with the 5.5 kb XbaI genomic fragment
# T7 sequence (P17597 56-670 W574L): as the sequence (P17597 56-670 W574L) above
# Protocol: as §1, §2, §3
# [11] = test system: W38 (wild-type); assay: Tobacco seed assay on herbicide medium, W38; type: in vivo; conditions: after three weeks
# Protocol: as §5
# [12] = test system: Wisconsin 38[W38] wild-type herbicide sensitive tobacco cultivar; assay: Postemergence spray of tobacco, susceptible control; type: in vivo; conditions: for plant growth: 25 days after spraying, Figure 2(a); for Tobacco Mean FW: (5 reps each): Control, four and one-half weeks
# Excerpt: as §6, §7
# [13] = test system: 0 x 10-1; assay: Tobacco seed assay on herbicide medium, 0 x 10-1; type: in vivo; conditions: 5 µM in medium; twenty seeds per dish; after three weeks
# Protocol: as §5
# [14] = 5 µM in medium, twenty seeds per dish
structure (smiles),measurement,setting,value
CCc1cnc(C2=NC(C)(C(C)C)C(=O)N2)c(C(=O)O)c1 (stereo not drawn) [Pursuit®],sensitivity of AHAS enzyme to herbicide,[1],sensitive
same,AHAS activity on addition of herbicide,[2],exhibits insensitivity
same,sensitivity of AHAS enzyme to herbicide,[3],highly resistant to inhibition
same,sensitivity of AHAS enzyme to herbicide,[4],insensitive
same,sensitivity of AHAS enzyme to herbicide,[5],insensitive
same,"D (Damaged), number of seedlings per dish",[6],6 and 11
same,"R (Resistant), number of seedlings per dish",[6],6
same,"D (Damaged), number of seedlings per dish",[7],9
same,"R (Resistant), number of seedlings per dish",[7],0
same,"S (Susceptible), number of seedlings per dish",[7],11
same,plant growth,[8]; 80 g/ha post-emergence,slightly inhibited
same,plant growth,[8]; 160 g/ha post-emergence,clearly inhibited
same,Tobacco Mean FW: (5 reps each),[8]; 10 g/ha postemergence,36.4 g
same,Tobacco Mean FW: (5 reps each),[8]; 20 g/ha postemergence,28.8 g
same,Tobacco Mean FW: (5 reps each),[8]; 40 g/ha postemergence,20.9 g
same,Tobacco Mean FW: (5 reps each),[8]; 80 g/ha postemergence,26.5 g
same,Tobacco Mean FW: (5 reps each),[8]; 160 g/ha postemergence,21.4 g
same,"tolerance to post-emergence applications, relative to the concentration lethal to control tobacco plants",[8]; progeny from 10-1,4-8 x
same,"herbicide tolerance, applied postemergence",[8]; rates 10 to 160 g/ha,high degree of tolerance
same,sensitivity of AHAS enzyme to herbicide,[9],insensitive to inhibition
same,AHAS activity in the presence of herbicide,[10],exhibit AHAS activity
same,"D (Damaged), number of seedlings per dish",[11]; [14],0
same,"R (Resistant), number of seedlings per dish",[11]; [14],0
same,"S (Susceptible), number of seedlings per dish",[11]; [14],20
same,herbicide tolerance of seedlings,"[11]; control plants, lowest concentration, 1.25 µM in medium",exhibited herbicide sensitivity
same,plant growth,"[12]; 10 g/ha post-emergence, compared to 10-1",slightly inhibited
same,Tobacco Mean FW: (5 reps each),[12]; 10 g/ha postemergence,8.1 g
same,Tobacco Mean FW: (5 reps each),[12]; 20 g/ha postemergence,2.0 g
same,Tobacco Mean FW: (5 reps each),[12]; 40 g/ha postemergence,0.8 g
same,Tobacco Mean FW: (5 reps each),[12]; 80 g/ha postemergence,0.6 g
same,Tobacco Mean FW: (5 reps each),[12]; 160 g/ha postemergence,0.2 g
same,"herbicide tolerance, applied postemergence",[12]; any of the rates tested (10 to 160 g/ha),does not display herbicide tolerance
same,plant growth,[12]; starting at 20 g/ha post-emergence,almost completely inhibited
same,"D (Damaged), number of seedlings per dish",[13],9 and 8
same,"R (Resistant), number of seedlings per dish",[13],0
same,"S (Susceptible), number of seedlings per dish",[13],10 and 8

# — patent EP0492113A2, “Herbicide resistant AHAS deletion mutants” (priority 1990, dated 1992)
